Laboratory results: US20250144107A1, “USE OF A PIKFYVE INHIBITOR IN COMBINATION WITH IMMUNOTHERAPY” (The Regents of the University of Michigan, priority 2023, published 2025)

Experiments:
[1] = test system: KPC1361 (pancreas), B16-F10 (melanoma), 4T1 (breast), and MyC-CaP (prostate); assay: Flow cytometry of MHC-I surface expression in murine cancer cells; type: cell-based; conditions: with or without IFN-γ; in a dose-dependent manner
Text: (§1) FIG. 1E (Left) is line graphs of flow cytometry measuring MHC-I surface expression in KPC1361 cells, stimulated with or without IFN-γ, treated with DMSO, Apilimod, or ESK981; (Right) are bar graphs of quantification of flow cytometry measuring MHC-I surface expression in KPC1361 cells, stimulated with or without IFN-γ, treated with DMSO, Apilimod, or ESK981.
as §1, with “FIG. 2A” for “FIG. 1E”, “in MyC-CaP” for “in KPC1361”, “(Right) is a” for “(Right) are”, “bar graph” for “bar graphs”
Cancer cells or the OVA-expressing cancer cells treated in vitro were harvested from dishes, resuspended in buffer MACS (PBS containing 2% FBS and 2 mM EDTA), and stained with Zombie NIR™ Fixable Viability kit (BioLegend: #423106) and fluorophore-conjugated antibody against MHC-I or PE-conjugated antibody against SIINFEKL bound H-2Kb (BioLegend; catalog #141604), respectively. The cells were next washed twice with 1 ml MACS and fixed with 2% paraformaldehyde in PBS for 15 minutes at room temperature. The cells were then subjected to the flow cytometer (SONY SH800S) for measuring surface expression of MHC-I or SIINFEKL bound H-2Kb, respectively. […]

KPC1361 cells = assay: MHC-I surface expression in Pikfyve-wildtype, Pikfyve-null, Atg5-null or Atg7-null cells; type: cell-based, mouse; conditions: on-target test
Text: as §1, with “1F” for “1E”, “cells” for “cells, stimulated”, “Pikfyve KO,” for “IFN-γ,”, “DMSO, Bafilomycin, chloroquine,” for “DMSO,”, “is” for “are”
FIG. 1G (Left) is a line graph of flow cytometry measuring MHC-I surface expression in KPC1361 cells with non-targeting single-guide RNA (control), or single-guide RNAs depleting Atg5 or Atg7, treated with DMSO or Apilimod; (Right) is a bar graph of quantification of flow cytometry measuring MHC-I surface expression in KPC1361 cells with non-targeting single-guide RNA (control), or single-guide RNAs depleting Atg5 or Atg7, treated with DMSO or Apilimod.
Cancer cells or the OVA-expressing cancer cells treated in vitro were harvested from dishes, resuspended in buffer MACS (PBS containing 2% FBS and 2 mM EDTA), and stained with Zombie NIR™ Fixable Viability kit (BioLegend: #423106) and fluorophore-conjugated antibody against MHC-I or PE-conjugated antibody against SIINFEKL bound H-2Kb (BioLegend; catalog #141604), respectively. The cells were next washed twice with 1 ml MACS and fixed with 2% paraformaldehyde in PBS for 15 minutes at room temperature. The cells were then subjected to the flow cytometer (SONY SH800S) for measuring surface expression of MHC-I or SIINFEKL bound H-2Kb, respectively. Antibodies used in this study include anti-H-2Kb (BD Biosciences; catalog #553570) and anti-H-2Db (28-14-8; Thermo Fisher Scientific; catalog #12-5999-82) for KPC1361 and B16-F10, anti-H-2Kd (BD Biosciences; catalog #562004) and anti-H-2Dd (BD Biosciences; catalog #553580) for 4T1, anti-H-2Kq (BD Biosciences; catalog #742296) and anti-H-2Dq/H-2Lq (BD Biosciences; catalog #744853) for MyC-CaP, and anti-HLA-A,B,C (clone w6/32; BioLegend; catalog #311406) for human cancer cells.

Compound	constitutive and induced surface expression of MHC-I [1]	upregulation of MHC-I surface expression, Pikfyve-wildtype vs Pikfyve-null cells (KPC1361 cells)
Cc1cccc(/C=N/Nc2cc(N3CCOCC3)nc(OCCc3ccccn3)n2)c1 [apilimod, N-[(E)-(3-methylphenyl)methylideneamino]-6-morpholin-4-yl-2-(2-pyridin-2-ylethoxy)pyrimidin-4-amine]	upregulated	only observed in the wildtype cells but not Pikfyve-null cells
CC(C)Cn1c2ccc(Nc3ncccn3)cc2c2c3c(c4c(c21)CCc1nn(C)cc1-4)C(=O)NC3 [ESK981, 13-isobutyl-4-methyl-10-(pyrimidin-2-ylamino)-1,2,4,7,8,13-hexahydro-6H-indazolo[5,4-a]pyrrolo[3,4-c]carbazol-6-one]	upregulated	only observed in the wildtype cells but not Pikfyve-null cells
